System: STZ-induced hyperglycemic rats
Test: Effect on STZ-induced hyperglycemia in rats (blood glucose level)
Type: in vivo, rat
Details: Tables 2-3, rats
Protocol: Male Sprague-Dawley rats (S.D. 180 g) were used in the experiments described below. The animals lived in individual metabolism cages with free access to food and water, while food and body weight were monitored daily. Peripheral blood samples (approximately 10 μl) were obtained from the tail vein of the animals. The blood glucose levels were measured by using Accu-Check Blood Glucose Meter (Roche Diagnosetics Corporation, IN). Beta cell function was evaluated once every two days over a 2-week period by an individual unaware of the treatment group. Animals were evaluated separately for blood glucose level, food intake and body weight. The endpoint check was pancreatic insulin content and pancreatic beta cell number.
Streptozotocin (STZ) was used to chemically induce damage in pancreatic function in order to create a hyperglycemic state in the animals. Eight-week old male Sprague-Dawley rats (200.00 g±10 g) were injected with STZ by intraperitoneal (i.p.) (65 mg/kg body weight (BW)) to create hyperglycemic animals (24 to 48 hours). Blood glucose levels were monitored daily. Onset of hyperglycemia occurred usually about 24 to 48 hours after STZ administration.
[…] the seventh day or on the third day after STZ administration, which allowed for examination of the TRH/TRH analog treatment and the degree of pancreatic damage in the diabetic animal. Again, food intake, body weight and blood glucose levels of each of the animals were monitored. When hyperglycemia was determined to be reversed by TRH/TRH analog, the animal was sacrificed. Blood samples were collected for insulin assay and the pancreas and muscles were collected for further pathological and physiological tests.
The figures shown in the tables are blood glucose levels (mg/dL; i.e., milligrams of glucose per deciliter of blood).

## NC(=O)C1CCCN1C(=O)C(Cc1c[nH]cn1)NC(=O)C(N)CCC(=O)O (stereo not shown) [GluT, 4-Amino-4-[2-(2-carbamoyl-pyrrolidin-1-yl)-1-(1H-imidazol-4-ylmethyl)-2-oxo-ethylcarbamoyl]-butyric acid]
STZ + compound 5 µg/kg, Day 1
  blood glucose level: 94 mg/dL
STZ + compound 5 µg/kg, Day 4
  blood glucose level: 98 mg/dL
STZ + compound 5 µg/kg, Day 7
  blood glucose level: 466 mg/dL
STZ + compound 5 µg/kg, Day 11
  blood glucose level: 457 mg/dL
STZ + compound 5 µg/kg, Day 15
  blood glucose level: 186 mg/dL
STZ + compound 5 µg/kg, Day 18
  blood glucose level: 215 mg/dL
STZ + compound 5 µg/kg, Day 21
  blood glucose level: 213 mg/dL
STZ + compound 5 µg/kg, Day 25
  blood glucose level: 173 mg/dL
STZ + compound 5 µg/kg, Day 28
  blood glucose level: 369 mg/dL
STZ + compound 5 µg/kg, Day 32
  blood glucose level: 342 mg/dL
STZ + compound 5 µg/kg, Day 35
  blood glucose level: 336 mg/dL
STZ + compound 5 µg/kg, Day 39
  blood glucose level: 376 mg/dL
STZ + compound 5 µg/kg, Day 42
  blood glucose level: 390 mg/dL
STZ + compound 5 µg/kg, Day 46
  blood glucose level: 317 mg/dL
STZ + compound 5 µg/kg, Day 54
  blood glucose level: 260 mg/dL
STZ + compound 5 µg/kg, Day 61
  blood glucose level: 324 mg/dL
STZ + compound 10 µg/kg, Day 1
  blood glucose level: 103 mg/dL
STZ + compound 10 µg/kg, Day 4
  blood glucose level: 99 mg/dL
STZ + compound 10 µg/kg, Day 7
  blood glucose level: 415 mg/dL
STZ + compound 10 µg/kg, Day 11
  blood glucose level: 477 mg/dL
STZ + compound 10 µg/kg, Day 15
  blood glucose level: 117 mg/dL
STZ + compound 10 µg/kg, Day 18
  blood glucose level: 125 mg/dL
STZ + compound 10 µg/kg, Day 21
  blood glucose level: 103 mg/dL
STZ + compound 10 µg/kg, Day 25
  blood glucose level: 102 mg/dL
STZ + compound 10 µg/kg, Day 28
  blood glucose level: 429 mg/dL
STZ + compound 10 µg/kg, Day 32
  blood glucose level: 111 mg/dL
STZ + compound 10 µg/kg, Day 35
  blood glucose level: 128 mg/dL
STZ + compound 10 µg/kg, Day 39
  blood glucose level: 252 mg/dL
STZ + compound 10 µg/kg, Day 42
  blood glucose level: 224 mg/dL
STZ + compound 10 µg/kg, Day 46
  blood glucose level: 289 mg/dL
STZ + compound 10 µg/kg, Day 54
  blood glucose level: 255 mg/dL
STZ + compound 10 µg/kg, Day 61
  blood glucose level: 218 mg/dL
STZ + compound 20 µg/kg, Day 1
  blood glucose level: 103 mg/dL
STZ + compound 20 µg/kg, Day 4
  blood glucose level: 98 mg/dL
STZ + compound 20 µg/kg, Day 7
  blood glucose level: 461 mg/dL
STZ + compound 20 µg/kg, Day 11
  blood glucose level: 502 mg/dL
STZ + compound 20 µg/kg, Day 15
  blood glucose level: 266 mg/dL
STZ + compound 20 µg/kg, Day 18
  blood glucose level: 263 mg/dL
STZ + compound 20 µg/kg, Day 21
  blood glucose level: 382 mg/dL
STZ + compound 20 µg/kg, Day 25
  blood glucose level: 345 mg/dL
STZ + compound 20 µg/kg, Day 28
  blood glucose level: 496 mg/dL
STZ + compound 20 µg/kg, Day 32
  blood glucose level: 468 mg/dL
STZ + compound 20 µg/kg, Day 35
  blood glucose level: 485 mg/dL
STZ + compound 20 µg/kg, Day 39
  blood glucose level: 477 mg/dL
STZ + compound 20 µg/kg, Day 42
  blood glucose level: 457 mg/dL
STZ + compound 20 µg/kg, Day 46
  blood glucose level: 487 mg/dL
STZ + compound 20 µg/kg, Day 54
  blood glucose level: 389 mg/dL
STZ + compound 20 µg/kg, Day 61
  blood glucose level: 452 mg/dL
STZ + compound 40 µg/kg, Day 1
  blood glucose level: 105 mg/dL
STZ + compound 40 µg/kg, Day 4
  blood glucose level: 99 mg/dL
STZ + compound 40 µg/kg, Day 7
  blood glucose level: 548 mg/dL
STZ + compound 40 µg/kg, Day 11
  blood glucose level: 568 mg/dL
STZ + compound 40 µg/kg, Day 15
  blood glucose level: 327 mg/dL
STZ + compound 40 µg/kg, Day 18
  blood glucose level: 405 mg/dL
STZ + compound 40 µg/kg, Day 21
  blood glucose level: 472 mg/dL
STZ + compound 40 µg/kg, Day 25
  blood glucose level: 455 mg/dL
STZ + compound 40 µg/kg, Day 28
  blood glucose level: 514 mg/dL
STZ + compound 40 µg/kg, Day 32
  blood glucose level: 543 mg/dL
STZ + compound 40 µg/kg, Day 35
  blood glucose level: 507 mg/dL
STZ + compound 40 µg/kg, Day 39
  blood glucose level: 589 mg/dL
STZ + compound 40 µg/kg, Day 42
  blood glucose level: 592 mg/dL
STZ + compound 40 µg/kg, Day 46
  blood glucose level: 609 mg/dL
STZ + compound 40 µg/kg, Day 54
  blood glucose level: 531 mg/dL
STZ + compound 40 µg/kg, Day 61
  blood glucose level: 413 mg/dL

Reference: US20080249028A1, “Thyrotropin-Releasing Hormone Analogs and Method of Use” (Roger Williams Hospital, priority 2005, published 2008)
